Test results from article PMC11125181, “New Inhibitors of Bcr-Abl Based on 2,6,9-Trisubstituted Purine Scaffold Elicit Cytotoxicity in Chronic Myeloid Leukemia-Derived Cell Lines Sensitive and Resistant to TKIs” (Pharmaceutics, 2024).
Read-outs that look alike come from different tables or passages of the source.

Experiments:
KCL22 B8 (T315I, 100%) = experiment: Cytotoxicity assay (resazurin) on KCL22 subclone B8; format: cell-based; conditions: Homo sapiens, KCL-22, read-out: GI50 KCL22 B8 T315I (100%), 72 h
Method: (§1) Human cell lines KCL22 and BV173 were obtained from the German Collection of Microorganisms and Cell Cultures, K562 and HEK-293T from the European Collection of Authenticated Cell Cultures. KBM5 cell line was kindly gifted by Vladimír Divoký. Development of KCL22 subclones B8 (T315I, 100%), F4 (E255K, 100%), and B10 (Y253H, 50%) was reported previously. All cell lines were cultivated in humidified incubator at 37 °C and in 5% CO2 according to the provider’s instructions in appropriate media supplemented with 10% fetal bovine serum, penicillin (100 IU/mL), streptomycin (100 µg/mL), and glutamine (4 mM).
(§2) Cytotoxicity was determined using resazurin, an indicator dye to measure oxidation-reduction reactions occurring in the mitochondria of live cells. The cells were seeded into 96-well plates and treated with compounds for 72 h (six different doses of each, in triplicate). After treatment, resazurin (Merck, Darmstadt, Germany) solution was added for 4 h, and the fluorescence of formed resorufin corresponding to live cell quantity was measured at 544 nm/590 nm (excitation/emission) using a Fluoroskan Ascent microplate reader (Labsystems, Vantaa, Finland).

[1] = test system: KCL22 B8 cell line containing Bcr-Abl^T315I; experiment: Cell cycle flow cytometry, KCL22 B8; format: cell-based, human; conditions: 24 h treatment
Method: The cell lines were seeded into 96-well plates and then treated with compounds for 24 h. After treatment, the cells were directly stained by adding 5 × staining solution (17 mM trisodium citrate dihydrate, 0.5% IGEPAL® CA-630, 7.5 mM spermine tetrahydrochloride, 2.5 mM Tris; pH 7.6 containing 50 μg/mL propidium iodide). […] Cell cycle distribution was analyzed using ModFit LT 5.0.9 (Verity Software House, Augusta, ME, USA).

[2] = test system: KCL22 cells containing Bcr-Abl^WT; experiment: Cytotoxicity assay (resazurin) on KCL22 WT; format: cell-based, human; conditions: Homo sapiens, KCL-22, 72 h, read-out: GI50 KCL22 WT
[3] = test system: STAT5 phosphorylation, PARP cleavage in KCL22 B10; experiment: Immunoblotting of Bcr-Abl pathway proteins, KCL22 B10; format: cell-based, human; conditions: immunoblot, 24 h treatment
Method: (§3) Cell lysates were separated on SDS–polyacrylamide gels and electroblotted onto nitrocellulose membranes. After blocking, overnight incubation with specific primary antibodies was performed, followed by wash and incubation with peroxidase-conjugated secondary antibodies (Cell Signalling). Peroxidase activity was detected with SuperSignal West Pico reagents (Thermo Scientific, Waltham, MA, USA) using a CCD camera LAS-4000 (Fujifilm, Tokyo, Japan). The following specific primary antibodies were used: Cell Signalling: anti-STAT5 (#94205), anti-p-STAT5 Y694 (#9351), anti-Crkl (#3182), anti-p-Crkl Y207 (#3181), anti-cyclin A (#4656), anti-p-Bcr Y177 (#3901), and anti-PARP (#9532); Santa Cruz Biotechnology: anti-β-actin (#sc-47778).

KBM5 = experiment: Cytotoxicity assay (resazurin) on KBM5; format: cell-based; conditions: Homo sapiens, KBM5; 72 h, resazurin assay; read-out: GI50 KBM5
BV173 = experiment: Cytotoxicity assay (resazurin) on BV173; format: cell-based; conditions: Homo sapiens, BV-173, 72 h
Method: as §1, §2

KCL22 F4 (E255K, 100%) = experiment: Cytotoxicity assay (resazurin) on KCL22 subclone F4; format: cell-based; conditions: Homo sapiens, KCL-22, read-out: GI50 KCL22 F4 E255K (100%), 72 h
Method: as §1, §2

KCL22 WT cells = experiment: Cell cycle flow cytometry, KCL22 WT; format: cell-based, human; conditions: 24 h treatment, increasing concentration up to 5 µM
Method: (§4) The cell lines were seeded into 96-well plates and then treated with compounds for 24 h. After treatment, the cells were directly stained by adding 5 × staining solution (17 mM trisodium citrate dihydrate, 0.5% IGEPAL® CA-630, 7.5 mM spermine tetrahydrochloride, 2.5 mM Tris; pH 7.6 containing 50 μg/mL propidium iodide). DNA content was measured by flow cytometry using a 488 nm laser (BD FACS Verse with software BD FACSuite™, version 1.0.6.). Cell cycle distribution was analyzed using ModFit LT 5.0.9 (Verity Software House, Augusta, ME, USA).

[4] = test system: KBM5, BV173, K562 (Bcr-Abl rearranged cell lines); experiment: Cytotoxicity across cell lines with Bcr-Abl rearrangement; format: cell-based; conditions: Homo sapiens, read-out: GI50 in Bcr-Abl rearranged cell lines (span over cell lines)
Method: as §1, §2

KCL22 B10 (Y253H) = experiment: Cell cycle flow cytometry, KCL22 B10; format: cell-based, human; conditions: 24 h treatment
Method: as §4

[5] = test system: p-Crkl, p-STAT5, PARP, cyclin A in WT KCL22 cell line; experiment: Immunoblotting of Bcr-Abl pathway proteins, WT KCL22; format: cell-based, human; conditions: immunoblot, 24 h treatment
Method: as §3

[6] = test system: STAT5 phosphorylation, PARP cleavage in KCL22 F4; experiment: Immunoblotting of Bcr-Abl pathway proteins, KCL22 F4; format: cell-based, human; conditions: immunoblot, 24 h treatment
Method: as §3

HEK-293T = experiment: Cytotoxicity assay (resazurin) on non-neoplastic HEK-293T; format: cell-based; conditions: Homo sapiens, 72 h, non-neoplastic cells
Method: as §1, §2

recombinant Abl1 kinase [7] = molecular target: T1, recombinant Abl1 kinase (Homo sapiens, UniProt P00519); experiment: Recombinant Abl1 kinase inhibition assay ([γ-33P]ATP, peptide substrate); format: biochemical
T1 construct: made in house
T1 sequence (P00519 whole entry): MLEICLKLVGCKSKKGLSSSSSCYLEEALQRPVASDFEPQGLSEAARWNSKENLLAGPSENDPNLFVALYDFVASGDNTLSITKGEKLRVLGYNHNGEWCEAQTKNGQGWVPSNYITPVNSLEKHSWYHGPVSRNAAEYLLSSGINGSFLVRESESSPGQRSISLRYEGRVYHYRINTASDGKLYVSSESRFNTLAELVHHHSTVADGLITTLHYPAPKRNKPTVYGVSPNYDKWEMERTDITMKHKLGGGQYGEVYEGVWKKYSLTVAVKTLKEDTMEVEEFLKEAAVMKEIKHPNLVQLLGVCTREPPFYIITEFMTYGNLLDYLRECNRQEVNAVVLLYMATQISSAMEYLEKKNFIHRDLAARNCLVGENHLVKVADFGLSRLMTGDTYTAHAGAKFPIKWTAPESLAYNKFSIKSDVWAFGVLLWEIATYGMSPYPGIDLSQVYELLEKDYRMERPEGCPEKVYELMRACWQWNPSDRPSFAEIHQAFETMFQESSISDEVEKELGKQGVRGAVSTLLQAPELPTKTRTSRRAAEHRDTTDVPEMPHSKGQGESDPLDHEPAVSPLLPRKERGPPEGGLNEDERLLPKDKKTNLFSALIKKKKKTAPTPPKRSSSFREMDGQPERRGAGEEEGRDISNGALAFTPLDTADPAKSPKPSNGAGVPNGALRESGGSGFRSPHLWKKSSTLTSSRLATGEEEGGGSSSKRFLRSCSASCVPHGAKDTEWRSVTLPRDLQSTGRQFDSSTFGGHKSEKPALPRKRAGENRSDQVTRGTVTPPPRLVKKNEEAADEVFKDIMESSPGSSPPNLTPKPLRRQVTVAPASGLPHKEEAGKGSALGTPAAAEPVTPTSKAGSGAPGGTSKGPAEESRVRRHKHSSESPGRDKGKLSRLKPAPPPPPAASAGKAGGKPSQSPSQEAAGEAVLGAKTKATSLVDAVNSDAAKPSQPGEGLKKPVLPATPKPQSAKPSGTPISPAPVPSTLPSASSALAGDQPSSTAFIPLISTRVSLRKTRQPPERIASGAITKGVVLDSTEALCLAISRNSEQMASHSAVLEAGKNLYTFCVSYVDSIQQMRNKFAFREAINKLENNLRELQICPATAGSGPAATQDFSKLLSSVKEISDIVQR
Method: The reactions were stopped by adding 5 µL of 3% aq. H3PO4. […] H3PO4, and air-dried.

KCL22 F4 (E255K) = experiment: Cell cycle flow cytometry, KCL22 F4; format: cell-based, human; conditions: 24 h treatment
Method: as §4

KCL22 B10 (Y253H, 50%) = experiment: Cytotoxicity assay (resazurin) on KCL22 subclone B10; format: cell-based; conditions: Homo sapiens, KCL-22, read-out: GI50 KCL22 B10 Y253H (50%), 72 h
Method: as §1, §2

K562 = experiment: Cytotoxicity assay (resazurin) on K562; format: cell-based; conditions: Homo sapiens, 72 h
Method: as §1, §2

[8] = test system: KCL22 models (WT, B8, F4, B10); experiment: Cytotoxicity across all KCL22 models; format: cell-based; conditions: Homo sapiens, KCL-22, read-out: GI50 in all KCL22 models (span over models)
Method: as §1, §2

recombinant Abl1 kinase [9] = molecular target: T1, recombinant Abl1 kinase; conditions: Figure 2A, compounds with longer N-9 substituents; read-out: IC50 Bcr-Abl; cited from earlier work
[10] = from the IC50 of Table S1, read-out: pIC50 (Table S1) (converted)
[11] = recombinant Abl1, 1 µM ATP, at least three independent experiments, read-out: IC50 Abl

Row | IC50 (recombinant Abl1 kinase [7]; [10]) | IC50 (recombinant Abl1 kinase [7]; [11]) | Structure (SMILES) | GI50 (KCL22 B8 (T315I, 100%)) | Effect on cell cycle distribution, KCL22 B8 (T315I) [1] | GI50 [2] | GI50 (KBM5) | GI50 (BV173) | GI50 (KCL22 F4 (E255K, 100%)) | GI50 (HEK-293T) | GI50 (KCL22 B10 (Y253H, 50%)) | GI50 (K562) | also measured
1 | 0.014 µM | 0.015 ± 0.01 µM | OCCN1CCN(c2ccc(Nc3nc(Nc4cccc(F)c4)c4ncn(CC5CC5)c4n3)cc2)CC1 [Compound 11b, 2-(4-(4-((9-(Cyclopropylmethyl)-6-((3-fluorophenyl)amino)-9H-purin-2-yl)amino)phenyl)piperazin-1-yl)ethan-1-ol] | 11.5 ± 1.1 µM | resistant | 2 ± 0.4 µM | 1.3 ± 0.1 µM | 1.5 ± 0.2 µM | 4.1 ± 0.1 µM | 5.5 ± 0.6 µM | 2.6 ± 0.2 µM | 0.7 ± 0.2 µM | Effect on Bcr-Abl downstream proteins, KCL22 B10 [3]: significantly pronounced in both mutant cell lines; Effect on cell cycle distribution, KCL22 WT (KCL22 WT cells): significant block of WT cells in G1 phase; GI50 [4]: 0.7 to 1.3 µM; Effect on cell cycle distribution, KCL22 B10 (KCL22 B10 (Y253H)): arrested F4 and B10 mutant models in G1 phase; Effect on Bcr-Abl downstream proteins, WT KCL22 [5]: downregulated the levels of p-Crkl and p-STAT5; Effect on Bcr-Abl downstream proteins, KCL22 F4 [6]: significantly pronounced in both mutant cell lines; Effect on cell cycle distribution, KCL22 F4 (KCL22 F4 (E255K)): arrested F4 and B10 mutant models in G1 phase
2 | 0.13 µM | 0.131 ± 0.071 µM | CC(C)CCn1cnc2c(Nc3cccc(F)c3)nc(Nc3ccc(N4CCN(CCO)CC4)cc3)nc21 [Compound 11e, 2-(4-(4-((6-((3-Fluorophenyl)amino)-9-isopentyl-9H-purin-2-yl)amino)phenyl)piperazin-1-yl)ethan-1-ol] | 6.9 ± 0.8 µM | resistant | 6.1 ± 0.1 µM | 5 ± 0.1 µM | 3.8 ± 0.1 µM | 5.6 ± 0.5 µM | 4.7 ± 0.7 µM | 6.9 ± 0.1 µM | 4.3 ± 0.2 µM | IC50 (recombinant Abl1 kinase [7]; as listed in Table S1, Bcr-Abl WT, read-out: IC50 (Table S1)): 0.13 µM; GI50 [8]: 5.6 to 6.9 µM
3 |  |  | CC(C)CCn1cnc2c(Nc3ccc(F)c(F)c3)nc(Nc3ccc(N4CCN(C)CC4)cc3)nc21 [IV] |  |  |  |  |  |  |  |  |  | IC50 (recombinant Abl1 kinase [9]): 2.28 µM
